Data on three compounds can be found in patent EP0398427A1, “Antirhinoviral pyridazinamines” (priority 1989, dated 1990).

The test system of assay [1] is Human Rhinovirus serotypes HRV- 2,-29,-39,-85,-9,-15,-51,-59,-63,-89 and -41. Description: Picornavirus Minimal Inhibitory Concentration test (cytopathic effect reduction assay), first panel of rhinoviruses. Type of assay: cell-based. The settings on record: Human rhinovirus sp., HeLa, read-out: Med₁. The protocol:
(§1) The Minimal Inhibitory Concentration of the compounds of the present invention against the Human Rhinovirus strains (HRV) -2,-9,-14,-15,-29,-39,-41,-42,-45,-51 -59,-63,-70,-72-,-85,-86 and -89 was determined by a standard cytophatic effect reduction assay as follows. To each of the ninty six (96) wells of a microtiter 96 well tissue culture plate there was added 60 µl of a Ohio Hela cell maintenance medium [Eagle's Basal medium supplemented with 5% Foetal Calf Serum (FCS)]. To two wells there was added 60 µl of an appropriate starting dilution of a compound of formula (I) and two-fold dilutions were made to cover a wide range of compound concentrations. Subsequently there were added 120 µl of an infectious solution of virus in Eagle's Basal Medium with 2% Hepes buffer, 2% FCS and 30 mM MgCl₂ to all wells except cell and compound controls. Said infectious virus solution having a TCID₅₀-value (Tissue Culture Infectious Dose) of about 100.
(§2) The TCID₅₀-value is the dose of viruses which initiates a cytopathic effect in 50% of the inoculated cells. 150 µl of the thus obtained virus-compound mixtures were then transferred to microtitre plates with subconfluent Ohio Hela Cells, grown in 100 µl of maintenance medium. Appropriate virus controls, cell controls and compound controls were included in each test. Plates were incubated for 3 to 5 days at 33°C in 5% CO₂ atmosphere. […] The IC₅₀-value for each virus-compound series was taken as the concentration in ng/ml that protected 50% of the cells from cytopathic effects with respect to the untreated controls. In the standard test procedure, the compounds were tested against a first panel of rhinoviruses consisting of serotypes HRV- 2,-29,-39,-85,-9,-15,-51,-59,-63,-89 and -41 and the other panel consisting of HRV-42,-45,-14,-70,-72 and -86.
(§3) The IC₅₀-value for each rhinovirus serotype was determined, and the efficacy of each compound was determined in terms of the Med₁-value and Med₂-value, which is the medium value of the IC₅₀-values of all serotypes from the first and second panel respectively.

Assay [2] deals with HRV-42,-45,-14,-70,-72 and -86. Description: Picornavirus Minimal Inhibitory Concentration test (cytopathic effect reduction assay), second panel of rhinoviruses. Type of assay: cell-based. The settings on record: Human rhinovirus sp., HRV42, HeLa, read-out: Med₂. As to the method:
as §1, §2, §3

In brackets after ≈: the same amount, converted by molar mass.

Regarding `CCOC(=O)c1ccc2nc(CC3CCN(c4ccc(Cl)nn4)CC3)sc2c1` [Compound 2, ethyl 2-[[1-(6-chloro-3-pyridazinyl)-4-piperidinyl]methyl]-6-benzothiazolecarboxylate], the values for the IC50 in assay [1] and in assay [2] were 0.031 µg/mL (≈ 0.0744 µM) and 0.067 µg/mL (≈ 0.161 µM), respectively.
As for `CCOC(=O)c1ccc2oc(CCC3CCN(c4ccc(Cl)nn4)CC3)nc2c1` [Compound 4, ethyl 2-[2-[1-(6-chloro-3-pyridazinyl)-4-piperidinyl]ethyl]-5-benzoxazolecarboxylate], the IC50 stood at 0.088 µg/mL (≈ 0.212 µM) in assay [1] and 0.039 µg/mL (≈ 0.094 µM) in assay [2].
Taken in the same sequence, the figures for `CCOC(=O)c1ccc(OCCC2CCN(c3ccc(C)nn3)CC2)s1` [Compound 7, ethyl 5-[2-[1-(6-methyl-3-pyridazinyl)-4-piperidinyl]ethoxy]-2-thiophenecarboxylate] were 0.007 µg/mL (≈ 0.0186 µM) and 0.185 µg/mL (≈ 0.493 µM).
